# Measurements published in patent publication US11236122B2, “Triterpene amine derivatives” (DFH THERAPEUTICS, priority 2018, dated 2022).
# Structures can show the parent of a compound that is named as a salt.
# What was measured:
# Format in all cases: cell-based
# human PBMCs = test: in vitro; conditions: 7 days
# Procedure: (§1) Human PBMC Preparation. Fresh human PBMCs were isolated from screened donors, seronegative for HIV and HBV (Biological Specialty Corporation, Colmar, Pa.). Cells were pelleted/washed 2-3 times by low speed centrifugation and resuspension in Dulbecco's phosphate buffered saline (PBS) to remove contaminating platelets. The leukophoresed blood was then diluted 1:1 with PBS and layered over 14 mL of Ficoll-Hypaque density gradient (Lymphocyte Separation Medium, Cell Grow #85-072-CL, density 1.078+/−0.002 g/mL) in a 50 mL centrifuge tube and then centrifuged for 30 min at 600×g. Banded PBMCs were gently aspirated from the resulting interface and subsequently washed twice with PBS by low speed centrifugation. After the final wash, cells were enumerated by trypan blue exclusion and re-suspended at 1×10^6 cells/mL in RPMI 1640 supplemented with 15% Fetal Bovine Serum (FBS), 2 mM L-glutamine, 100 U/mL penicillin, […] streptomycin, and 4 μg/mL Phytohemagglutinin (PHA; Sigma, St. Louis, Mo.; cat #L1668). The cells were allowed to incubate for 48-72 h at 37° C. After incubation, PBMCs were centrifuged and resuspended in RPMI 1640 with 15% FBS, L-glutamine, penicillin, streptomycin, non-essential amino acids (MEM/NEAA; Hyclone; cat #SH30238.01), and 20 U/mL recombinant human IL-2 (R&D Systems Inc., Minneapolis, Minn.; cat #202IL). PBMCs were maintained in this medium at a concentration of 1-2×10^6 cells/mL, with twice-weekly medium changes until they were used in the assay protocol. Monocytes-derived-macrophages were depleted from the culture as the result of adherence to the tissue culture flask.
# (§2) PBMC Assay. For the standard PBMC assay, PHA stimulated cells from at least two normal donors were pooled (mixed together), diluted in fresh medium to a final concentration of 1×10^6 cells/mL, and plated in the interior wells of a 96 well round bottom microplate at 50 μL/well (5×10^4 cells/well) in a standard formate developed by the Infectious Disease Research Department of the SRI. Pooling (mixing) of mononuclear cells from more than one donor was used to minimize the variability observed between individual donors, which results from quantitative and qualitative differences in HIV infection and overall response to the PHA and IL-2 of primary lymphocyte populations. Each plate contains virus control wells (cells plus virus) and experimental wells (drug plus cells plus virus). Test drug dilutions were prepared at a 2× concentration in microtiter tubes and 100 μL of each concentration was placed in appropriate wells using the standard format. 50 μL of a predetermined dilution of virus stock was placed in each test well (final MOI≈0.1). Separate plates were prepared identically without virus for drug cytotoxicity studies using an MTS assay system (described below; cytotoxicity plates also include compound control wells containing drug plus media without cells to control for colored compounds that affect the MTS assay). The PBMC cultures were maintained for seven days following infection at 37° C., 5% CO2. After this period, cell-free supernatant samples were collected for analysis of reverse transcriptase activity, and compound cytotoxicity was measured by addition of MTS to the separate cytotoxicity plates for determination of cell viability. Wells were also examined microscopically and any abnormalities were noted.
# (§3) MTS Staining for PBMC Viability to Measure Cytotoxicity. At assay termination, the uninfected assay plates were stained with the soluble tetrazolium-based dye MTS (CellTiter 96 Reagent, Promega) to determine cell viability and quantify compound toxicity. MTS is metabolized by the mitochondria enzymes of metabolically active cells to yield a soluble formazan product, allowing the rapid quantitative analysis of cell viability and compound cytotoxicity. […] At termination of the assay, […] of MTS reagent was added per well and the microtiter plates were then incubated at 37° C., 5% CO2 to assess cell viability. […]
# in vitro = conditions: human
# Procedure: as §1, §2, §3
# HIV-1 clade B NL4-3 = test: Viral infectivity assay in TZM-bl cells (luciferase), NL4-3; conditions: DMSO = 100
# Text: Plasmids, tissue culture and transfections. HIV-1 clade B molecular clone NL4-3 and cade C clones K3016, ZM247 were obtained from Dr. Christina Ochsenbauer, University of Alabama, USA. Both K3016 and ZM247 were constructed using viral strains from South Africa. The HIV-1 clade C molecular clone pindieC1 was obtained from Dr. Uday Ranga, JNCASR, India. This clone was constructed using an HIV strain from India. HEK-293T and TZM-bl cells were propagated in Dulbecco's modified Eagle's medium (DM4EM) containing 10% fetal bovine serum (FBS). HUT-R5 cells were propagated in RPM 1640 medium supplemented with 10% FBS. For transfections, HEK-293T cells were grown in six well plates to about 80% confluency. Cells were transfected using Lipofectamine 2000 (invitrogen, USA) following manufacturer's recommendations. For viral replication assays, HUT-R5 T-cells were transfected using DEAE dextran as described in Waheed, A. A., Ono, A., and Freed, E. O.; Methods for the study of HIV-1 assembly; Methods Mol. Biol. Clifton N.J. 485, 163-184 (2009).
# Preparation of viral stocks. Virus stocks were prepared by transfecting HEK-293T cells with HIV-1 DNAs (3 μg). 24 h post-transfection, the culture medium was replaced with fresh DMEM and incubated for another 2 h. Compounds tested were maintained in the culture throughout transfection. The culture supernatant was centrifuged at 845×g for 3 min to remove cellular debris. The clarified supernatants were filtered (pore size 0.45 µm filter disc) to remove residual cellular contaminants. For determination of viral infectivity, the un-concentrated virus was used to infect TZM-bl cells. For the CA-SP1 accumulation assay, the virus was pelleted by ultra-centrifugation at 210,100×g for 1 h at 4° C. using SW41Ti rotor (Beckman Coulter, USA).
# Viral infectivity assays. The virus stocks were normalized for p24 antigen using an HIV-1 p24 Antigen Capture kit (ABL, USA). Equal amounts of virus were used to infect TZM-bl cells (5×10^4/well) in the presence of 20 μg DEAE-dextran per mL in 24 well plate. Single-round infectivity assays were performed as previously described in Checkley, M. A. et al; Reevaluation of the Requirement for TIP47 in Human Immunodeficiency Virus Type 1 Envelope Glycoprotein Incorporation; J. Virol. 87, 3561-3570 (2013). The luciferase activity in the cell lysates was measured using the Steady-Glo luciferase assay kit (Promega, USA) following manufacturer's recommendations.
# [1] = Cytotoxicity assay CellTitre-Blue, HUT-R5; conditions: human, HUT-R5 cells, read-out: Cytotoxicity CC50 HUTR5
# Procedure: Cytotoxicity assays. Cytotoxicity assays were performed using the CellTitre-Blue Cell Viability Assay kit (Promega, USA) as per manufacturer's recommendations. HEK-293T and HUT-R5 cell lines were maintained in the presence of serial dilutions of the compounds for 4 days and treated with CellTitre-Blue reagent for 4 h at 37° C. The fluorescent signals were recorded at 530/25excision and 590/35emission using BioTek microplate reader. The 50% cytotoxicity concentrations (CC50s) were determined as the compound concentrations that reduced the fluorescent signals to 50% relative to DMSO only controls.
SMILES,CC50 (human PBMCs) [nM],CC50 at 7 days (in vitro) [nM],% Relative Infectivity NL4-3 10 nM (HIV-1 clade B NL4-3) [%],% Relative Infectivity NL4-3 100 nM (HIV-1 clade B NL4-3) [%],CC50 at 4 days [1] [nM]
"C=C(C)[C@@H]1CC[C@]2(CCNCCN3CCS(=O)(=O)CC3)CC[C@]3(C)[C@H](CC[C@@H]4[C@@]5(C)CC[C@H](OC(=O)CC(C)(C)C(=O)O)C(C)(C)[C@@H]5CC[C@]43C)[C@@H]12 [Compound 51ee, (3β)-17-[[[2-[2-(1,1-Dioxothiomorpholin-4-yl)]Ethyl]Amino]Ethyl]-28-norlup-20(29)-en-3-ol, 3-(1-Hydrogen 2,2-Dimethylbutanedioate)]",> 1000,> 1000,15.4,4.4,> 500
"C=C(C)[C@@H]1CC[C@]2(CCNC3CCN(CCO)CC3)CC[C@]3(C)[C@H](CC[C@@H]4[C@@]5(C)CC[C@H](OC(=O)CC(C)(C)CC(=O)O)C(C)(C)[C@@H]5CC[C@]43C)[C@@H]12 [Compound 51f, (3β)-17-[2-[[1-(2-Hydroxyethyl)piperidin-4-yl]amino]ethyl]-28-norlup-20(29)-en-3-ol, 3-(Hydrogen 3,3-Dimethylpentanedioate), Bis(trifluoroacetate) Salt]",> 1000,> 1000,–,–,–
"C=C(C)[C@@H]1CC[C@]2(CCNCCN3CCN(S(C)(=O)=O)CC3)CC[C@]3(C)[C@H](CC[C@@H]4[C@@]5(C)CC[C@H](OC(=O)CC(C)(C)C(=O)O)C(C)(C)[C@@H]5CC[C@]43C)[C@@H]12 [Compound 51ff, (3β)-17-[2-[[2-[4-(Methylsulfonyl)piperazin-1-yl]ethyl]amino]ethyl]-28-norlup-20(29)-en-3-ol, 3-(1-Hydrogen 2,2-Dimethylbutanedioate)]",> 1000,> 1000,20.1,2.9,> 500
"C=C(C)[C@@H]1CC[C@]2(CCNCCN3CCN(Cc4ccccc4)CC3)CC[C@]3(C)[C@H](CC[C@@H]4[C@@]5(C)CC[C@H](OC(=O)CC(C)(C)C(=O)O)C(C)(C)[C@@H]5CC[C@]43C)[C@@H]12 [Compound 51hh, (3β)-17-[2-[[2-[4-(Phenylmethyl)piperazin-1-yl]ethyl]amino]ethyl]-28-norlup-20(29)-en-3-ol, 3-(1-Hydrogen 2,2-Dimethylbutanedioate)]",> 1000,> 1000,41.4,3.3,> 500
